Test [1] deals with human micro-vascular endothelial cells (HMVEC). Nature of the test: In vitro vascular permeability assay on a VEGF-treated HMVEC monolayer (FITC-dextran). It is filed as cell-based. Particulars: HMVEC line, 50 ng/ml, 8 hours. On the procedure:
(§1) The direct effect on the vasal permeability of three compositions comprising Sulodexide+flavonoids was evaluated in vitro:
(§2) All tested compositions (i)-(iii) comprise a concentration of sulodexide equal to 0.25% and a concentration of diosmin, hesperidin or troxerutin, respectively, equal to 4.5% by weight with respect to the total weight of the composition.
(§3) The action of the compositions (i)-(iii) was compared with the action of the active principles Diosmin, Hesperidin, Troxerutin, 8% by weight, and glucosaminoglycan Sulodexide, 0.5% by weight, administered singularly.
(§4) The direct effect on the vasal permeability was evaluated by using endothelial cellular cultures miming the continuous mono-layer of the endothelium of the human vessels. Two cellular models were used: the human micro-vascular endothelial cells (HMVEC) to simulate the vessels of the microcirculation, and the human umbilical vein endothelial cells (HUVEC) to study the vasal endothelium. The cells of the lines HMVEC and HUVEC (3×10^5) were incubated for 72 hours at 37° C. on supports of semi-permeable membrane with pores having 1-μm diameter so as to form a continuous mono-layer wholly impermeable to the substance used as control, the fluorescein isothiocyanate (FITC) dextran. The vasal permeability was evaluated with the kit “The Millipore® In Vitro Vascular Permeability Assay”. […]

Test [2] relates to human umbilical vein endothelial cells (HUVEC). In words: In vitro vascular permeability assay on a VEGF-treated HUVEC monolayer (FITC-dextran). Format: cell-based. Particulars: 50 ng/ml, 8 hours. On the procedure: as §1, §2, §3, §4

Consider VEGF, for which the increase in permeability in test [1] was found to be 36%; in test [2] it was 42%.

The record behind these values is US20250295690A1, “ORAL FORMULATION BASED ON A PRE-ESTABLISHED ASSOCIATION OF SULODEXIDE AND FLAVONOIDS FOR THE TREATMENT OF CHRONIC VENOUS INSUFFICIENCY AND PREVENTION OF COMPLICATIONS THEREOF” (priority 2021, published 2025).
